Assay results as given in patent publication US8569499B2, “Process for making trans-1-((1R,3S)-6-chloro-3-phenylindan-1-yl)-3,3-dimethylpiperazine” (H. Lundbeck A/S, priority 2005, dated 2013).

Key:
[1] = tested on: alfa1 adrenoceptors; details: as described in PCT/DK04/000546; cited from earlier work
[2] = target: DA D2 receptors (Homo sapiens, UniProt P14416); details: as described in PCT/DK04/000546; cited from earlier work
[3] = target: dopamine (DA) D1 receptors (Homo sapiens, UniProt P21728); details: as described in PCT/DK04/000546; cited from earlier work
[4] = target: serotonin 5-HT2a receptors (Homo sapiens, UniProt P28223); details: as described in PCT/DK04/000546; cited from earlier work
[5] = tested on: rabbit model; details: as described in PCT/DK04/000546; cited from earlier work
[6] = target: CYP2D6 (Homo sapiens, UniProt P10635); details: as described in PCT/DK04/000546; cited from earlier work
[7] = tested on: pigs sensitized to haloperidol; assay: dystonia in pigs sensitized to haloperidol; assay type: in vivo
[8] = target: dopamine D2 receptors (Homo sapiens, UniProt P14416); details: as described in PCT/DK04/000546; cited from earlier work
[9] = target: dopamine D1 receptors (Homo sapiens, UniProt P21728); details: as described in PCT/DK04/000546; cited from earlier work
Sequence of dopamine D1 receptors (P21728 whole entry): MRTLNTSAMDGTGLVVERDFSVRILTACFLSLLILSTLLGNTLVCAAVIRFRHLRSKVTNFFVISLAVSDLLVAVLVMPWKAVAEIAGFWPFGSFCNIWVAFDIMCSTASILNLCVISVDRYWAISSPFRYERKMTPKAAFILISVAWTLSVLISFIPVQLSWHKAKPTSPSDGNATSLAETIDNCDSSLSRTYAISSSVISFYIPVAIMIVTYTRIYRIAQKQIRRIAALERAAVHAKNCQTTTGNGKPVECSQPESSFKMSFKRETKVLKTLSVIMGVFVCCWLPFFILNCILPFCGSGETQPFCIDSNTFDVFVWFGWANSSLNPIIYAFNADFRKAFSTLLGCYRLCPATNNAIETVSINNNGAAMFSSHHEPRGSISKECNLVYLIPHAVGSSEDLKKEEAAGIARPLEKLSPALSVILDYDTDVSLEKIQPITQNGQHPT

Sequence of DA D2 receptors (P14416 whole entry): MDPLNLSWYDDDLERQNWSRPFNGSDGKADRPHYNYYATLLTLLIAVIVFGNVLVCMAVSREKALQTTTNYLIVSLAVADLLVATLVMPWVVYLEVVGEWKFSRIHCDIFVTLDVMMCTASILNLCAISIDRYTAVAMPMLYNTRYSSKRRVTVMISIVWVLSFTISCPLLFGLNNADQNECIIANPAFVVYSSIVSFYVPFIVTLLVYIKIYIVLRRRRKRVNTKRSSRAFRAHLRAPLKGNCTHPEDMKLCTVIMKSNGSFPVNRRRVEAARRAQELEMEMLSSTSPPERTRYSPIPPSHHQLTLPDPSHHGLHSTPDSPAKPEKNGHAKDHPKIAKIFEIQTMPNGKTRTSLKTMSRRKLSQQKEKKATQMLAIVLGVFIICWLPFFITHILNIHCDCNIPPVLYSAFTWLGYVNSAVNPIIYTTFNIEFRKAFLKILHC
Sequence of dopamine D2 receptors (P14416 whole entry): as above
Sequence of dopamine (DA) D1 receptors (P21728 whole entry): as the sequence (P21728 whole entry) above
Sequence of CYP2D6 (P10635 whole entry): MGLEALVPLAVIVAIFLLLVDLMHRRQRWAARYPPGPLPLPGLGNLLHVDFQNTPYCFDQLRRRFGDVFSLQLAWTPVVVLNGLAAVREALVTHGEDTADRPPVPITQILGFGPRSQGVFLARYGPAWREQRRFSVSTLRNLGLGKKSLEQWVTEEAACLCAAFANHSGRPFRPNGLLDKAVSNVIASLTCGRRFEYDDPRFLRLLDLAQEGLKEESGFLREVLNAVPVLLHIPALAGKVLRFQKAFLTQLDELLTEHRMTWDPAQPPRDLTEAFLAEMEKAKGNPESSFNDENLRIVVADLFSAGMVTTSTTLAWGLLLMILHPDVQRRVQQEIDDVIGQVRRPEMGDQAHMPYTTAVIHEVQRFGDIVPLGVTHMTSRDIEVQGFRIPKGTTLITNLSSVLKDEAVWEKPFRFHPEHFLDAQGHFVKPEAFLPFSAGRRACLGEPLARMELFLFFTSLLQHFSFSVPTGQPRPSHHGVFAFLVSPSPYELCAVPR
Sequence of serotonin 5-HT2a receptors (P28223 whole entry): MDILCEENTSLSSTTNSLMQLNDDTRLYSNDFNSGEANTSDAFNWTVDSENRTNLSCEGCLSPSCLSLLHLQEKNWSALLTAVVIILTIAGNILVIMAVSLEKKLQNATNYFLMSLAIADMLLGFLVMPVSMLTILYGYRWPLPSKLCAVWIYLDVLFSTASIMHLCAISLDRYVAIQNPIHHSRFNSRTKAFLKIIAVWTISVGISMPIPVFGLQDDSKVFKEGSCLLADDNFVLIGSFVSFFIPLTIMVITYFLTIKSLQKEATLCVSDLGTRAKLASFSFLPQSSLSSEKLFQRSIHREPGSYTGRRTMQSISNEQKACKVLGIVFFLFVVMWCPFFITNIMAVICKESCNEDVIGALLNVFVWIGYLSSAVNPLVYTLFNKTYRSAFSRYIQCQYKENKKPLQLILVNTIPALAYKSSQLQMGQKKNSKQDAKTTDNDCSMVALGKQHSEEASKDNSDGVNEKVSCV

CC1(C)CN([C@@H]2C[C@@H](c3ccccc3)c3ccc(Cl)cc32)CCN1 [Compound I, trans-1-((1R,3S)-6-chloro-3-phenylindan-1-yl)-3,3-dimethylpiperazine]
affinity for alfa1 adrenoceptors [1]: high affinity
affinity for DA D2 receptors [2]: high affinity
affinity for dopamine (DA) D1 receptors [3]: high affinity
functional activity at serotonin 5-HT2a receptors [4]: antagonist
effect on the QT interval [5]: relatively low effect
inhibition of CYP2D6 [6]: relatively weak inhibitor
induction of dystonia (EPS liability) [7]: did not induce dystonia
functional activity at dopamine D2 receptors [8]: antagonist
functional activity at dopamine D1 receptors [9]: antagonist
